From patent publication US20240217990A1 (Gilead Sciences, Inc., priority 2021, published 2024)

How the values were obtained:
TLR8 = biological target: T1, TLR8 (Homo sapiens, UniProt Q9NR97); test: TLR8 human PBMC cell-based assay (antagonist, Compound A stimulated cytokine release); details: human PBMCs; TLR8 agonist Compound A 800 nM, 6 hours; cytokines (TNFa and IL 12p40) in supernatant; read-out: TLR-8 EC50
T1 construct: Human peripheral blood mononuclear cells (PBMCs) consist of lymphocytes, monocytes and dendritic cells that express TLR7, TLR8 and TLR9; endogenous in cells; host or cells: cryopreserved human PBMCs from healthy donors
T1 sequence (Q9NR97 27-1041): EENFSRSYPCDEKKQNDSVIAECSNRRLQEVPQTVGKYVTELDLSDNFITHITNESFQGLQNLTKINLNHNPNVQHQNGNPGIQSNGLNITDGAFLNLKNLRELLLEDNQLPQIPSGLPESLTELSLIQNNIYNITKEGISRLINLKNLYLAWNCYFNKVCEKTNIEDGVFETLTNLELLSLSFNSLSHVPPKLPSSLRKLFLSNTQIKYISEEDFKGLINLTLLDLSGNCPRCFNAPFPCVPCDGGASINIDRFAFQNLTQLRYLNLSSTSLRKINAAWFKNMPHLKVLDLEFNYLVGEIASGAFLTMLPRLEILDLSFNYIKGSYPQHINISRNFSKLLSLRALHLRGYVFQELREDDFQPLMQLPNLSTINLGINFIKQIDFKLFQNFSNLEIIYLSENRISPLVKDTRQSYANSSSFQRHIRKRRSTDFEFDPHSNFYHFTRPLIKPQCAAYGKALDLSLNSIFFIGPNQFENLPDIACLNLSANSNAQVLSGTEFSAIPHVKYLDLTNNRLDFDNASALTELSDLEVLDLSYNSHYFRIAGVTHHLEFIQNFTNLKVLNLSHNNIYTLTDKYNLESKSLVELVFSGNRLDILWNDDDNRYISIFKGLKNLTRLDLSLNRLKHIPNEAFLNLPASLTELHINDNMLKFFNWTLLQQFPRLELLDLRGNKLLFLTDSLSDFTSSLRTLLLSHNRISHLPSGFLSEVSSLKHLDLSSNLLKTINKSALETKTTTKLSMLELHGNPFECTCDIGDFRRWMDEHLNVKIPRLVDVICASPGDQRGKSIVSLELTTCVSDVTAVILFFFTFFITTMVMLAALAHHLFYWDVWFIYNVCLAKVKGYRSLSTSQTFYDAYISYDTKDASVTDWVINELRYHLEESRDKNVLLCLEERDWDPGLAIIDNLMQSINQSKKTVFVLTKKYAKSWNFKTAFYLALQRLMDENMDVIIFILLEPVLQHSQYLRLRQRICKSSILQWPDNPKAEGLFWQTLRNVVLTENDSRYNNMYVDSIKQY
In short: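 Cryopreserved donor PBMCs (100,000/well, RPMI + 10% FBS) were preincubated 1 h with antagonist (10-point dose response, quadruplicate), then stimulated with Compound A (800 nM final) for 6 h at 37 °C. TNFa and IL-12p40 in supernatants were measured by electrochemiluminescence; sigmoidal fits gave EC50.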

TLR7 = biological target: T2, TLR7 (Homo sapiens, UniProt Q9NYK1); test: TLR7 human PBMC cell-based assay (antagonist, GS-986 stimulated cytokine release); details: human PBMCs; TLR7 agonist GS-986 400 nM, 6 hours; cytokines (IL-6 and IFNα) in supernatant; read-out: TLR-7 EC50
T2 construct: Human peripheral blood mononuclear cells (PBMCs) consist of lymphocytes, monocytes and dendritic cells that express TLR7, TLR8 and TLR9; endogenous in cells; host or cells: cryopreserved human PBMCs from healthy donors
T2 sequence (Q9NYK1 27-1049): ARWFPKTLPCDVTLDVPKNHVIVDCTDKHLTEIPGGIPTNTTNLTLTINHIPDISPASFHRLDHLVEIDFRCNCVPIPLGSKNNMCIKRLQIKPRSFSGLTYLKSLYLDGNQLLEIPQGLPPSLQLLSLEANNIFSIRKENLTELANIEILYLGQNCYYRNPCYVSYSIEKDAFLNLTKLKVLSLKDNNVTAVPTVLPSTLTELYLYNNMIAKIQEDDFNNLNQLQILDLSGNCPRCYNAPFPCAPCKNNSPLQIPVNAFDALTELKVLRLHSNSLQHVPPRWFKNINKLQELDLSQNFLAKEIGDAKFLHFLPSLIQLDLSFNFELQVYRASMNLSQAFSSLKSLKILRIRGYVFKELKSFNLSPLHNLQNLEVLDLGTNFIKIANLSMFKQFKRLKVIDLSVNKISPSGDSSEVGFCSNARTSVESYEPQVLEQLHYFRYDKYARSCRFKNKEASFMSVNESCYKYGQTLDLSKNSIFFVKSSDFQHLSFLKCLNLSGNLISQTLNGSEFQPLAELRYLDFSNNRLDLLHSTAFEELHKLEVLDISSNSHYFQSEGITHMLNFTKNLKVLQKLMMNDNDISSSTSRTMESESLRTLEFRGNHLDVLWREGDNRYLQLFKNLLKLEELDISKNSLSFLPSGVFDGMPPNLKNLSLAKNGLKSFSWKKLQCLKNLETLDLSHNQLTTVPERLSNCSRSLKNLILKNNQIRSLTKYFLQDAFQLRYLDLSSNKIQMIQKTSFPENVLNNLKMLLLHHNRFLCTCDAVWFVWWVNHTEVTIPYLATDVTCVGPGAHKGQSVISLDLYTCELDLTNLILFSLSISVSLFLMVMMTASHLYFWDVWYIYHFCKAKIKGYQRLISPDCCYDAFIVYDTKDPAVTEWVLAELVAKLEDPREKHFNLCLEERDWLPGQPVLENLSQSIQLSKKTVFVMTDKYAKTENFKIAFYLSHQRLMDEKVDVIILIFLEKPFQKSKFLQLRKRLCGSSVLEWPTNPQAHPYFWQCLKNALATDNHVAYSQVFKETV
In short: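 EC50 derived by sigmoidal fitting of IL-6 and IFNα levels, quantified by electrochemiluminescence in supernatants of human PBMCs given 400 nM GS-986 for 6 h. Cells (100,000/well in RPMI-1640, 10% FBS) had received test antagonist 1 h beforehand, 10 doses in quadruplicate, at 37 °C.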

EC50 (TLR8)	EC50 (TLR7)	Compound
0.5 nM	1.2 nM	Cc1c(-c2[nH]c3cc(C(=O)N(C)C4CCN(CCO)CC4)sc3c2C(C)C)cn2ncnc2c1C [Example 192]
15.2 nM	0.34 nM	Cc1cc(-c2[nH]c3cc(C4CCC5(CC4)CN(C(=O)[C@@H]4COCCN4)C5)sc3c2C(C)C)cn2ncnc12 [Example 285]
14.2 nM	0.23 nM	Cc1cc(-c2[nH]c3cc(C4CCC5(CC4)CN(C(=O)[C@H]4COCCN4)C5)sc3c2C(C)C)cn2ncnc12 [Example 284]
1.19 nM	0.14 nM	Cc1cc(-c2[nH]c3cc(C4CCC5(C4)CN(CC(N)=O)C5)sc3c2C(C)C)cn2ncnc12 (racemic) [Example 295, 2-(6-(6-Isopropyl-5-(8-methyl-[1,2,4]triazolo[1,5-a]pyridin-6-yl)-4H-thieno[3,2-b]pyrrol-2-yl)-2-azaspiro[3.4]octan-2-yl)acetamide]
31.7 nM	0.3 nM	Cc1cc(-c2[nH]c3cc(C4CCC5CNCC5C4)sc3c2C(C)C)cn2ncnc12 (stereo not shown) [Example 157]
408 nM	504 nM	Cc1cc(-c2[nH]c3cc(C(=O)N4CC5(CNC5)C4)sc3c2C(C)C)cc(C)n1 [Example 24]
115 nM	17.8 nM	Cc1cc(-c2[nH]c3cc(C(=O)N4CCNC(=O)C4)sc3c2C(C)C)cn2ncnc12 [Example 40, 4-[6-isopropyl-5-(8-methyl-[1,2,4]triazolo[1,5-a]pyridin-6-yl)-4H-thieno[3,2-b]pyrrole-2-carbonyl]piperazin-2-one]
51.2 nM	35 nM	Cc1cc(-c2[nH]c3cc(CN4CC5(C4)CS(=O)(=O)C5)sc3c2C(C)C)cn2ncnc12 [Example 271]
27.2 nM	67.7 nM	Cc1cc(-c2[nH]c3cc(C(=O)N4CC[C@@H](N)C4)sc3c2C(C)C)cc(C)n1 [Example 8]
4.6 nM	0.2 nM	Cc1cc(-c2[nH]c3cc(C4=NC5(CCNCC5)CO4)sc3c2C(C)C)cn2ncnc12 [Example 50, 2-(6-isopropyl-5-(8-methyl-[1,2,4]triazolo[1,5-a]pyridin-6-yl)-4H-thieno[3,2-b]pyrrol-2-yl)-3-oxa-1,8-diazaspiro[4.5]dec-1-ene]
5.31 nM	0.56 nM	Cc1cc(-c2[nH]c3cc(C4CCC5CN(CC(N)=O)CCC5C4)sc3c2C(C)C)cn2ncnc12 (stereo not shown) [Example 287]
4.6 nM	34.9 nM	Cc1cc(-c2[nH]c3cc(-c4cnn5c4CNCC5)sc3c2C(C)C)cn2ncnc12 [Example 219]
0.5 nM	0.4 nM	Cc1cc(-c2[nH]c3cc(-c4ccc5c(c4)CCNC5)sc3c2C(C)C)cn2ncnc12 [Example 223]
9.7 nM	9.8 nM	Cc1c(-c2[nH]c3cc(C(=O)N(C)[C@@H]4CNC[C@H](C(F)(F)F)C4)sc3c2C(C)C)cn2ncnc2c1C [Example 273, 5-(7,8-dimethyl-[1,2,4]triazolo[1,5-a]pyridin-6-yl)-6-isopropyl-N-methyl-N-((3S,5R)-5-(trifluoromethyl)piperidin-3-yl)-4H-thieno[3,2-b]pyrrole-2-carboxamide]
9.1 nM	0.3 nM	Cc1cc(-c2[nH]c3cc(C(=O)N(C)[C@@H]4CCNC[C@@H]4F)sc3c2C(C)C)cn2ncnc12 [Example 79]
22.2 nM	6.5 nM	Cc1cc(-c2[nH]c3cc(C(=O)N4CCC5(CCN(CC(N)=O)CC5)C4)sc3c2C(C)C)cn2ncnc12 [Example 176]
588 nM	592 nM	Cc1cc(-c2[nH]c3cc(C(=O)NC4CCNCC4)sc3c2C(C)C)cc(C)n1 [Example 4]
47.8 nM	18.9 nM	Cc1cc(-c2[nH]c3cc(C(=O)N4CCn5c(nnc5C(F)(F)F)C4)sc3c2C(C)C)cn2ncnc12 [Example 118]
12.8 nM	3.9 nM	Cc1cc(-c2[nH]c3cc(C(=O)N4CCCCC4CN(C)C)sc3c2C(C)C)cn2ncnc12 (stereo not shown) [Example 107]
91 nM	10.3 nM	Cc1cc(-c2[nH]c3cc(C(=O)N(C)[C@H]4CCNCC4(F)F)sc3c2C(C)C)cn2ncnc12 [Example 81]
25 nM	22.7 nM	Cc1cc(-c2[nH]c3cc(C4CC4C(=O)N4CCN(CCO)CC4)sc3c2C(C)C)cn2ncnc12 (stereo not shown) [Example 306]
29.8 nM	0.7 nM	Cc1cc(-c2[nH]c3cc(C(=O)N(C)CCN(C)C)sc3c2C(C)C)cn2ncnc12 [Example 136]
4.6 nM	0.5 nM	Cc1cc(-c2[nH]c3cc(C(=O)N4CCC5CNCCC54)sc3c2C(C)C)cn2ncnc12 (stereo not shown) [Example 88]
